Test results reported in patent publication US20230149516A1, “USE OF PEPTIDYLGLYCINE ALPHA-AMIDATING MONOOXYGENASE (PAM) FOR THERAPEUTIC PURPOSE” (PAM THERAGNOSITICS GMBH, priority 2020, published 2023).
One block for each molecule: values may come before it.

Columns and labels:
[1] = target: T1, adrenomedullin-Gly (ADM-Gly) (UniProt P35318)
T1 sequence: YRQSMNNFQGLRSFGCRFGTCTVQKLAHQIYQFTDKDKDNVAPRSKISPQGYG

bio-ADM = assay: Circulating bio-ADM concentration in rats after intravenous injection of PAM, ascorbate or both; format: in vivo, Wistar rats
[2] = target: T2, circulating human PAM activity (Homo sapiens, UniProt P19021); assay: Amidating activity in healthy human volunteers after oral ascorbate uptake, measured without exogenous ascorbate; format: in vivo; conditions: 2000 mg oral single dose
T2 construct: Human serum or Li-Heparin plasma from self-reported healthy volunteers was used as source of human native PAM; from tissue; host or cells: Li-heparin plasma and serum of healthy human volunteers
T2 sequence (P19021 31-973): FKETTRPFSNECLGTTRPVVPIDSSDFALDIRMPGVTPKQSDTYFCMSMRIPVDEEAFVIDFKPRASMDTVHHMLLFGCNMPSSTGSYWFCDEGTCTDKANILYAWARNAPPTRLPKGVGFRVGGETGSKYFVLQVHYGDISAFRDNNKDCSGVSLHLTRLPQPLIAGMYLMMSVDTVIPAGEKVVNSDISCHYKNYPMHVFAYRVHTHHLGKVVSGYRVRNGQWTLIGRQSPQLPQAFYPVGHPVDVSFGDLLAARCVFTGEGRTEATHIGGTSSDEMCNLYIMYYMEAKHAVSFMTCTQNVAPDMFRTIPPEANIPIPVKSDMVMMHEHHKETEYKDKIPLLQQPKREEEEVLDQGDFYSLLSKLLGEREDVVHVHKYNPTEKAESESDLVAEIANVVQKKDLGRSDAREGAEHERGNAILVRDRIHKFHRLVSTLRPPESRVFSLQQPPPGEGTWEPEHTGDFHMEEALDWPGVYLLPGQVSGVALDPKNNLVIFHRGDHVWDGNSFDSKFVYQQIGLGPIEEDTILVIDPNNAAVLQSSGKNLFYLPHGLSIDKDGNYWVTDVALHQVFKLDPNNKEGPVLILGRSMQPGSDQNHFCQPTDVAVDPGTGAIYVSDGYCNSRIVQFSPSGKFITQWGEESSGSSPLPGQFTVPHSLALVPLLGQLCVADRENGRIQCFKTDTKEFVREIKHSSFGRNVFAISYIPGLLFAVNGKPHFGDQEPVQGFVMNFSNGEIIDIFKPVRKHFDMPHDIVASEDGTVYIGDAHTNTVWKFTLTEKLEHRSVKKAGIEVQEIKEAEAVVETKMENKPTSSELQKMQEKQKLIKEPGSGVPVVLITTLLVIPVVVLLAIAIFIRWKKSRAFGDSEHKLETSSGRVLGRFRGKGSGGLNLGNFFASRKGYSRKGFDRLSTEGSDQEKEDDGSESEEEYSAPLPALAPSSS
Protocol: FIG. 23: Amidating activity in healthy human volunteers before (0 h) and after oral ascorbate uptake measured without addition of exogenous ascorbate. AMA at t=0 h was set as 100%.
Human serum or Li-Heparin plasma from self-reported healthy volunteers was used as source of human native PAM. Each sample (20 μl) was diluted two-fold in 100 mM Tris-HCl in duplicate. The amidation reaction was initiated by addition of 160 μl of PAM-reaction buffer (100 mM Tris-HCl, pH 7.5, 6.25 μM CuSO4, 2.5 mM L-ascorbate, 125 μg/mL catalase, 62.5 μM amastatin, 250 μM leupeptin, 36 ng/mL synthetic ADM-Gly and 375 μg/mL NT-ADM antibody). Afterwards, 100 μl of each individual reaction of duplicated samples were combined and transferred into 20 μl of 200 mM EDTA to terminate the amidation reaction and to generate t=0 minutes reaction time-point followed by incubation at 37° C. for 40 minutes. Afterwards the non-terminated reactions were stopped with 10 μl of 200 mM EDTA. To determine the PAM activity, bio-ADM as reaction product was quantified in each sample using the Sphingotest® bio-ADM immunoassay (Weber et al. 2017). The amidation assay was calibrated using a 6-point calibration curve generated with human recombinant PAM of known activity. Samples and calibrators were treated in the same manner. Relative light units (RLU t40 min-t0 min) determined via Sphingotest® bio-ADM immunoassay for each sample were fitted against the RLU (t40 min-t0 min) of the calibrator to determine the PAM activity in the samples. PAM activity is described as “adrenomedullin maturation activity” (AMA) in μg bio-ADM formed per hour and L of sample.
Healthy volunteers (n=4) received 2000 mg of vitamin C (Dr. Scheffler, Additiva® Vitamin C) as an oral single dose. Blood sampling was performed prior to- and 1, 2 and 3 hours post administration. Basal amidating activity was determined from Li-heparin plasma and serum as described in example 3 in absence of exogenous ascorbate addition and is shown in FIG. 23.

PAM activity = assay: Circulating PAM activity in rats after intravenous injection of PAM, ascorbate or both, measured without exogenous ascorbate; format: in vivo, Wistar rats
[3] = target: T3, adrenomedullin-Gly (ADM-Gly), P35318
T3 chain: T1 sequence

Molecule: native human PAM in human plasma or serum
formation of bio-ADM (Sphingotest bio-ADM immunoassay) in human Li-Heparin plasma [1]: When ADM-Gly was added to the sample, a linear formation of bio-ADM was detected within 90 minutes
formation of bio-ADM from endogenous ADM-Gly in human Li-Heparin plasma [1]: endogenous human PAM enzyme is capable of the conversion of endogenous human ADM-Gly to bioADM in a time-dependent manner

PAM activity elevated by the factor compared to prior to ascorbate uptake ([2]; 1 h after uptake): 1.7
PAM activity elevated by the factor compared to prior to ascorbate uptake ([2]; 2 h post uptake): ~2
PAM activity elevated by the factor compared to prior to ascorbate uptake ([2]; 3 h post uptake): ~2
Molecule: O=C1O[C@H]([C@@H](O)CO)C(O)=C1O [Ascorbate, vitamin C, reference compound]
bio-ADM concentration elevated by the factor (normalized to placebo) (bio-ADM; after 15 min): 1.4
bio-ADM concentration elevated by the factor (normalized to placebo) (bio-ADM; after 30 min): 1.4
bio-ADM concentration elevated by the factor (normalized to placebo) (bio-ADM; after 45 min): 1.2
bio-ADM concentration elevated by the factor (normalized to placebo) (bio-ADM; after 60 min): returned to baseline levels
bio-ADM concentration compared to the Placebo group (bio-ADM; after 120 minutes): not significantly different
PAM activity compared to placebo group (PAM activity; 120 min past injection): comparable to PAM activity in the placebo group
time of maximal elevation of PAM activity past injection (PAM activity; single i.v. injection): 15 min
elevation of circulating PAM activity (PAM activity; single i.v. injection of 500 μl (PAM 50 μg/mL, ascorbate 40 mg/mL), vs placebo): non-significant elevation
time PAM activity remained elevated after injection (PAM activity; single i.v. injection, significantly elevated for PAM and the combination): 60 min

B1: recombinant human PAM (peptidylglycine alpha-amidating monooxygenase, amino acids 21-834, C-terminal hexa-histidine tag linked via a GS linker) (protein)
chain: SPLSVFKRFKETTRPFSNECLGTTRPVVPIDSSDFALDIRMPGVTPKQSDTYFCMSMRIPVDEEAFVIDFKPRASMDTVHHMLLFGCNMPSSTGSYWFCDEGTCTDKANILYAWARNAPPTRLPKGVGFRVGGETGSKYFVLQVHYGDISAFRDNNKDCSGVSLHLTRLPQPLIAGMYLMMSVDTVIPAGEKVVNSDISCHYKNYPMHVFAYRVHTHHLGKVVSGYRVRNGQWTLIGRQSPQLPQAFYPVGHPVDVSFGDLLAARCVFTGEGRTEATHIGGTSSDEMCNLYIMYYMEAKHAVSFMTCTQNVAPDMFRTIPPEANIPIPVKSDMVMMHEHHKETEYKDKIPLLQQPKREEEEVLDQGDFYSLLSKLLGEREDVVHVHKYNPTEKAESESDLVAEIANVVQKKDLGRSDAREGAEHERGNAILVRDRIHKFHRLVSTLRPPESRVFSLQQPPPGEGTWEPEHTGDFHMEEALDWPGVYLLPGQVSGVALDPKNNLVIFHRGDHVWDGNSFDSKFVYQQIGLGPIEEDTILVIDPNNAAVLQSSGKNLFYLPHGLSIDKDGNYWVTDVALHQVFKLDPNNKEGPVLILGRSMQPGSDQNHFCQPTDVAVDPGTGAIYVSDGYCNSRIVQFSPSGKFITQWGEESSGSSPLPGQFTVPHSLALVPLLGQLCVADRENGRIQCFKTDTKEFVREIKHSSFGRNVFAISYIPGLLFAVNGKPHFGDQEPVQGFVMNFSNGEIIDIFKPVRKHFDMPHDIVASEDGTVYIGDAHTNTVWKFTLTEKLEHRSVKKAGIEVQEIKEAEAVVGSHHHHHH
bio-ADM synthesis rate [3]: by an averaged factor of 1.8 at each time-point
